± gives the expanded uncertainty stated by the source.
Columns and labels:
[1] = xn = mol fraction of the nth substance listed; details: 308.15 K, 101.3 kPa, Liquid
[2] = 308.15 K; 101.3 kPa; Liquid
[3] = refractive index (Na D-line) (dimensionless); details: 101.33 kPa, Liquid, Standard Abbe refractometry
[4] = activity coefficient (dimensionless); of the first substance listed, at infinite dilution; xn = mol fraction of the nth substance listed; details: 101.3 kPa, Liquid, Differential ebulliometry, x1 = 0

Compound: CCCCCCCCCCCC [dodecane] + Cc1cccc(O)c1
- mass density ([1]; x2 = 0): 738.63 ± 0.36 kg/m3

Compound: CCCCCCCCCC [decane]
- mass density [2]: 720.24 ± 0.42 kg/m3
- refractive index ([3]; 308.15 K): 1.4055 ± 0.0007

Compound: CCCCCCCCCCCC [dodecane]
- mass density [2]: 738.63 ± 0.36 kg/m3
- refractive index ([3]; 293.15 K): 1.421 ± 0.0007

Compound: Cc1ccccc1O [2-methylphenol] + CCCCCCCCCC
- mass density ([1]; x1 = 0.0637): 730.49 ± 0.42 kg/m3
- mass density ([1]; x1 = 0.0908): 735.2 ± 0.42 kg/m3
- mass density ([1]; x1 = 0.162): 748.33 ± 0.42 kg/m3
- mass density ([1]; x1 = 0.2086): 757.57 ± 0.42 kg/m3
- mass density ([1]; x1 = 0.272): 770.9 ± 0.41 kg/m3
- mass density ([1]; x1 = 0.3186): 781.32 ± 0.42 kg/m3
- mass density ([1]; x1 = 0.4014): 801.21 ± 0.42 kg/m3
- mass density ([1]; x1 = 0.4707): 819.47 ± 0.43 kg/m3
- mass density ([1]; x1 = 0.529): 836.06 ± 0.43 kg/m3
- mass density ([1]; x1 = 0.6014): 858.4 ± 0.43 kg/m3
- mass density ([1]; x1 = 0.6596): 878.02 ± 0.43 kg/m3
- mass density ([1]; x1 = 0.7379): 906.95 ± 0.43 kg/m3
- mass density ([1]; x1 = 0.7876): 927.04 ± 0.43 kg/m3
- mass density ([1]; x1 = 0.8714): 964.58 ± 0.44 kg/m3
- mass density ([1]; x1 = 0.9348): 996.28 ± 0.45 kg/m3
- mass density ([1]; x1 = 0.9617): 1010.78 ± 0.47 kg/m3
- mass density ([1]; x1 = 1): 1032.73 ± 0.49 kg/m3
- activity coefficient ([4]; 393.15 K): 4.15 ± 0.58
- activity coefficient ([4]; 413.15 K): 3.49 ± 0.49
- activity coefficient ([4]; 433.15 K): 3.04 ± 0.43

Compound: Cc1cccc(O)c1 [3-methylphenol] + CCCCCCCCCC
- activity coefficient ([4]; 373.15 K): 7.79 ± 1.1
- activity coefficient ([4]; 403.15 K): 5.37 ± 0.75
- activity coefficient ([4]; 433.15 K): 4.26 ± 0.6

Compound: Cc1ccccc1O [2-methylphenol] + CCCCCCCCCCC
- mass density ([1]; x1 = 1): 1032.73 ± 0.49 kg/m3
- activity coefficient ([4]; 393.15 K): 4.47 ± 0.63
- activity coefficient ([4]; 413.15 K): 3.77 ± 0.53
- activity coefficient ([4]; 433.15 K): 2.85 ± 0.4

Compound: CCCCCCCCCCC [undecane] + Cc1ccccc1O
- mass density ([1]; x2 = 0): 729.13 ± 0.36 kg/m3
- mass density ([1]; x2 = 0.0367): 734.21 ± 0.35 kg/m3
- mass density ([1]; x2 = 0.0684): 738.92 ± 0.35 kg/m3
- mass density ([1]; x2 = 0.0746): 739.92 ± 0.35 kg/m3
- mass density ([1]; x2 = 0.1306): 748.8 ± 0.35 kg/m3
- mass density ([1]; x2 = 0.2094): 762.7 ± 0.34 kg/m3
- mass density ([1]; x2 = 0.2809): 776.41 ± 0.34 kg/m3
- mass density ([1]; x2 = 0.3636): 794.01 ± 0.34 kg/m3
- mass density ([1]; x2 = 0.4749): 820.79 ± 0.35 kg/m3
- mass density ([1]; x2 = 0.5311): 835.93 ± 0.36 kg/m3
- mass density ([1]; x2 = 0.5989): 855.95 ± 0.36 kg/m3
- mass density ([1]; x2 = 0.6593): 875.61 ± 0.37 kg/m3
- mass density ([1]; x2 = 0.7261): 899.41 ± 0.38 kg/m3
- mass density ([1]; x2 = 0.8065): 931.92 ± 0.39 kg/m3
- mass density ([1]; x2 = 0.8662): 959.18 ± 0.41 kg/m3
- mass density ([1]; x2 = 0.9476): 1001.43 ± 0.45 kg/m3

Compound: CCCCCCCCCCC [undecane] + Cc1cccc(O)c1
- mass density ([1]; x2 = 0): 729.13 ± 0.36 kg/m3

Compound: Cc1cccc(O)c1 [3-methylphenol] + CCCCCCCCC
- mass density ([1]; x1 = 0.1021): 726.54 ± 0.36 kg/m3
- mass density ([1]; x1 = 0.1998): 747.24 ± 0.34 kg/m3
- mass density ([1]; x1 = 0.302): 770.94 ± 0.33 kg/m3
- mass density ([1]; x1 = 0.4021): 796.76 ± 0.31 kg/m3
- mass density ([1]; x1 = 0.5): 825 ± 0.31 kg/m3
- mass density ([1]; x1 = 0.7): 892.22 ± 0.23 kg/m3
- mass density ([1]; x1 = 0.9): 974.43 ± 0.14 kg/m3
- mass density ([1]; x1 = 1): 1022.02 ± 0.13 kg/m3
- activity coefficient ([4]; 373.15 K): 9.21 ± 1.3
- activity coefficient ([4]; 393.15 K): 7.06 ± 0.99
- activity coefficient ([4]; 413.15 K): 5.96 ± 0.83

Compound: Cc1cccc(O)c1 [3-methylphenol]
- mass density [2]: 1022.02 ± 0.13 kg/m3
- refractive index ([3]; 293.15 K): 1.5401 ± 0.0007

Compound: CCCCCCCCC [nonane]
- mass density [2]: 707.41 ± 0.38 kg/m3
- refractive index ([3]; 293.15 K): 1.4058 ± 0.0007

Compound: Cc1ccccc1O [2-methylphenol]
- mass density [2]: 1032.73 ± 0.49 kg/m3
- refractive index ([3]; 308.15 K): 1.5386 ± 0.0007

Compound: CCCCCCCCCCC [undecane]
- mass density [2]: 729.13 ± 0.36 kg/m3
- refractive index ([3]; 293.15 K): 1.4164 ± 0.0007

Compound: Cc1cccc(O)c1 [3-methylphenol] + CCCCCCCCCCCC
- mass density ([1]; x1 = 0.1325): 756.67 ± 0.34 kg/m3
- mass density ([1]; x1 = 0.2055): 767.97 ± 0.33 kg/m3
- mass density ([1]; x1 = 0.3009): 784.51 ± 0.32 kg/m3
- mass density ([1]; x1 = 0.4009): 804.35 ± 0.31 kg/m3
- mass density ([1]; x1 = 0.6976): 883.71 ± 0.23 kg/m3
- mass density ([1]; x1 = 0.7987): 921.29 ± 0.2 kg/m3
- mass density ([1]; x1 = 0.895): 963.9 ± 0.15 kg/m3
- mass density ([1]; x1 = 1): 1022.02 ± 0.13 kg/m3

Compound: CCCCCCCCC [nonane] + Cc1cccc(O)c1
- mass density ([1]; x2 = 0): 707.41 ± 0.38 kg/m3

Compound: CCCCCCCCCC [decane] + Cc1ccccc1O
- mass density ([1]; x2 = 0): 720.24 ± 0.42 kg/m3

Compound: Cc1cccc(O)c1 [3-methylphenol] + CCCCCCCCCCC
- mass density ([1]; x1 = 0.1287): 748.52 ± 0.34 kg/m3
- mass density ([1]; x1 = 0.1853): 758.11 ± 0.33 kg/m3
- mass density ([1]; x1 = 0.3395): 787.84 ± 0.31 kg/m3
- mass density ([1]; x1 = 0.389): 798.63 ± 0.3 kg/m3
- mass density ([1]; x1 = 0.5024): 826.11 ± 0.29 kg/m3
- mass density ([1]; x1 = 0.6023): 854.21 ± 0.26 kg/m3
- mass density ([1]; x1 = 0.6949): 884.19 ± 0.23 kg/m3
- mass density ([1]; x1 = 0.8): 923.73 ± 0.19 kg/m3
- mass density ([1]; x1 = 0.9): 968.61 ± 0.14 kg/m3
- mass density ([1]; x1 = 1): 1022.02 ± 0.13 kg/m3
- activity coefficient ([4]; 393.15 K): 6.25 ± 0.88
- activity coefficient ([4]; 413.15 K): 4.9 ± 0.69
- activity coefficient ([4]; 433.15 K): 3.93 ± 0.55

Compound: Cc1ccccc1O [2-methylphenol] + CCCCCCCCC
- mass density ([1]; x1 = 0.0661): 719.58 ± 0.37 kg/m3
- mass density ([1]; x1 = 0.0684): 720.02 ± 0.37 kg/m3
- mass density ([1]; x1 = 0.1489): 736.5 ± 0.36 kg/m3
- mass density ([1]; x1 = 0.2085): 749.6 ± 0.35 kg/m3
- mass density ([1]; x1 = 0.2703): 764.08 ± 0.35 kg/m3
- mass density ([1]; x1 = 0.3994): 797.32 ± 0.35 kg/m3
- mass density ([1]; x1 = 0.4008): 797.69 ± 0.35 kg/m3
- mass density ([1]; x1 = 0.4688): 817.04 ± 0.36 kg/m3
- mass density ([1]; x1 = 0.5237): 833.66 ± 0.37 kg/m3
- mass density ([1]; x1 = 0.5941): 856.51 ± 0.36 kg/m3
- mass density ([1]; x1 = 0.6631): 880.76 ± 0.37 kg/m3
- mass density ([1]; x1 = 0.7323): 906.98 ± 0.38 kg/m3
- mass density ([1]; x1 = 0.8106): 939.53 ± 0.39 kg/m3
- mass density ([1]; x1 = 0.8674): 965.12 ± 0.41 kg/m3
- mass density ([1]; x1 = 0.9285): 994.76 ± 0.44 kg/m3
- mass density ([1]; x1 = 1): 1032.73 ± 0.49 kg/m3
- activity coefficient ([4]; 373.15 K): 5.84 ± 0.82
- activity coefficient ([4]; 393.15 K): 4.58 ± 0.64
- activity coefficient ([4]; 413.15 K): 3.8 ± 0.5

Compound: CCCCCCCCC [nonane] + Cc1ccccc1O
- mass density ([1]; x2 = 0): 707.41 ± 0.38 kg/m3

From the NIST ThermoML archive (doi:10.1021/je049540s)
